Source: patent US10131653B2, “Heterocyclic compound” (TAKEDA PHARMACEUTICAL COMPANY LIMITED, priority 2015, dated 2018)

How the values were obtained:
[1] = target: T1, human OX1 receptor (Homo sapiens, UniProt O43613); experiment: Measurement of orexin receptor antagonistic activity (calcium fluorescence, FLIPRtetra); type: cell-based; details: 10 μM test compound; CHO cells expressing human OX1 receptor; OX-A 1 nM
T1 construct: expressed in transfected cells; host or cells: CHO cells
T1 sequence (O43613 1-425): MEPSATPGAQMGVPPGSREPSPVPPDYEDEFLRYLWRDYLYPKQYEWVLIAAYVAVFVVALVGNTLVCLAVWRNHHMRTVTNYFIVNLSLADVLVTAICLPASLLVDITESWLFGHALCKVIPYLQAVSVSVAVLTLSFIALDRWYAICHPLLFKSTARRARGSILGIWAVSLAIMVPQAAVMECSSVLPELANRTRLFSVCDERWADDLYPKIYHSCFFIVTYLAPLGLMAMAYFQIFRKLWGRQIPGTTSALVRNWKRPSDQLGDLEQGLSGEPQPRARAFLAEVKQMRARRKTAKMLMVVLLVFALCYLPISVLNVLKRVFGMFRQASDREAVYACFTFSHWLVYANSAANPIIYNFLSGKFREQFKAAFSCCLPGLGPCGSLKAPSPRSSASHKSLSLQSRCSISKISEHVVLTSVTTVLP
How it was run: (§1)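 CHO cells expressing human OX1 or OX2 receptor, cultured one day. Compound in HBSS/20 mM HEPES/0.1% BSA added, then orexin-A at 1 nM final (OX1) or 0.3 nM final (OX2); calcium fluorescence by FLIPRtetra every 1 s for 2 min.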

[2] = target: T2, human OX2 receptor (Homo sapiens, UniProt O43614); experiment: as above; type: cell-based; details: CHO, 10 μM test compound; CHO cells expressing human OX2 receptor; OX-A 0.3 nM; read-out: Human Orexin2 receptor inhibition (at 10 μM)
T2 construct: expressed in transfected cells; host or cells: CHO cells
T2 sequence (O43614 1-444): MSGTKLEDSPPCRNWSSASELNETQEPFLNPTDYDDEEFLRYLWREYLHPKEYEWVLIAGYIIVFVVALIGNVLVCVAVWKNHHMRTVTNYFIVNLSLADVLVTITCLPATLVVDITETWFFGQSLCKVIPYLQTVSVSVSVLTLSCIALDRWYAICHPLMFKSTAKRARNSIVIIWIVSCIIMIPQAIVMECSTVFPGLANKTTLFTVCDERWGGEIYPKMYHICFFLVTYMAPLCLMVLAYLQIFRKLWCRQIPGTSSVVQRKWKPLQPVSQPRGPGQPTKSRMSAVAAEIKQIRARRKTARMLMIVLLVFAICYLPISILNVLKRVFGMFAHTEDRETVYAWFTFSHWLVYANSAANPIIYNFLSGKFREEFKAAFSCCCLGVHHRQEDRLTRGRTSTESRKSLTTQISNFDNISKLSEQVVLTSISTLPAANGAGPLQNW
How it was run: as §1

[3] = system: Male SD rats; experiment: Effect on sleep in rat (brain wave measurement); type: in vivo
Protocol: Male SD rats were purchased from Charles River Laboratories Japan, Inc. They were used for an experiment after an acclimation period of at least one week after carrying them in the animal experimental facility. They were bred in the animal experimental facility with environment in which 12-hours light-dark cycle was performed, humidity and temperature were controlled, and free water drinking and feeding were allowed.
Electrodes for brain wave measurement were implanted in rat cortex, muscle electrodes were implanted in rat cervical muscle, and a transmitter was implanted under rat back skin. Rats in which chronic electrodes were implanted were fully acclimated to a box for brain wave measurement, and then the brain wave measurement was performed. The brain wave data was obtained using Dataquest ART manufactured by Data Sciences International. For analysis, wakefulness, non-REM sleep and REM sleep were automatically determined using Sleep Sign which is a program for sleep analysis study by KISSEI COMTEC Co., Ltd. The compound of Example 102 was subcutaneously administered at a dose of 3 mg/kg immediately before beginning of dark period. The sum of non-REM sleep and REM sleep 1 hr after the administration was regarded as total sleep. All data were shown as the mean+standard error. For statistical analysis, variance analysis to crossover was performed (*p ?0.05).

[4] = Measurement of solubility; type: physicochemical; details: aqueous buffer, thermodynamic from solid; Britton-Robinson's Buffer pH 3, 37° C., shaking 2 hr; crystals from n-heptane suspension
Protocol: n-Heptane was added to the compounds of Examples 1, 2 and 102 at 40 mg/mL, respectively, and the mixtures were continued to be stirred at room temperature in a suspended state. After 3 to 7 days, the mixtures were filtered, and the obtained crystals as a sample were subjected to powder X-ray diffraction measurement (measurement condition: mentioned above) and solubility measurement.

Human Orexin1 receptor inhibition (at 10 μM) [1]: 94% | inhibition at 10 µM [2]: 101% | solubility at 2 h [4]: ≥ 5000 µg/mL
Compound: Cc1cc(N2CCN(C(=O)c3cc(Cl)ccc3-n3nccn3)C[C@H](C)O2)nc(C)n1 [Example 102, (5-chloro-2-(2H-1,2,3-triazol-2-yl)phenyl)((7S)-2-(2,6-dimethylpyrimidin-4-yl)-7-methyl-1,2,5-oxadiazepan-5-yl)methanone]
Total sleep compared with solvent control group ([3]; 3 mg/kg subcutaneous): significantly increased | Total sleep ([3]; 3 mg/kg subcutaneous immediately before dark period, sum of non-REM and REM sleep 1 hr after administration, mean): 33.51 min
